{"source": "paper PMC7496931", "about": "“Activation of Sirtuin 2 Inhibitors Employing Photoswitchable Geometry and Aqueous Solubility” (Chemmedchem, 2020)", "key": {"[1]": {"assay": "Photoisomer distribution (PSD) by HPLC-ELSD", "assay_type": "physicochemical", "conditions": "HPLC in MeOH/water, ELSD; for E/Z [%] PSD @ 365 nm: after 365 nm irradiation; for E/Z [%] PSD @ 452 nm: after 452 nm irradiation", "experimental": "(§1) Photochemistry: All photoisomerization experiments were conducted under ruby light of 630 nm and total exclusion of daylight. Illumination was executed using a Bio‐Link 254 Crosslinker from Vilber‐Lourmat equipped with six Vilber‐Lourmat T8‐L lamps (8 W, 365 nm). Visible light radiation of 630 nm (ruby) and 452 nm (blue) was derived from a Paulmann FlexLED 3D strip. All compounds were irradiated in solution using spectrophotometric grade solvents. Photoisomerization and UV/Vis‐spectra measurement was conducted in quartz glass cuvettes (114‐QS, Hellma Analytics) at room temperature."}, "[2]": {"system": "urinary bladder cancer cell line RT‐4", "assay": "Cell-based activity assay (western blot of acetylation levels)", "set-up": "species or system human", "conditions": "RT-4 cells, 50 μM, 24 h, compounds irradiated (365 nm) prior to incubation", "experimental": "Reductive stability of 15 c, 15 f and 20 a in the presence of the cellular reductant glutathione (5 mM) was confirmed by HPLC analysis (Figure S5, Table S2). For the cell‐based activity assay, we illuminated the compounds solved in DMSO with UV light (365 nm) prior to incubation with the cells. […] As expected, 15 c and 15 f increased the levels of acetylated lysines H3K18 and H3K56, which are both affirmed substrates of Sirt2. In addition, we found H4K8 hyperacetylation even though this site is usually not affected by sirtuin catalysed deacetylation, indicating a further mode of action. […] In Figure 6, we show the relative results, whereby the acetylation product was related to total target protein and to the vehicle control. Again, we found an increase in acetylated histones induced by 15 c and 15 f which proves activity of these two compounds in living cells.\nFigure 6 Relative acetylation levels of protein targets after incubation with compounds at 50 μM for 24 h in urinary bladder cancer cell line RT‐4 (mean of n=2). […]\nCell-Based Activity Assay\nTo qualify inhibitory activity of compounds on sirtuins we used the western blot technique.\nTherefore, we used precast “Mini-Protean TGX Stain-Free Gels” and corresponding “Trans-Blot Turbo Transfer Pack Mini” PVDF membranes (Biorad, Germany). For sample preparation, […]\nSirt2 in our cell line stock (Data not shown), obtained from “Deutsche Sammlung von Mikroorganismen und Zellkulturen” (DSMZ), Germany. Cells were grown in RPMI 1640 cell medium supplemented with 10% fetal bovine serum and 1% penicillin/streptomycin purchased from PAN Biotec, Germany and stored in a humidified incubator at 37 °C with 5% CO2 atmosphere. For sample preparation, cells were harvested with Trypsin/EDTA and counted in a Beckman’s Coulter Counter. In six well plates, […] were seeded out in 3 mL medium and let allow to attach for 24 h. Stock solutions of compounds (1000-fold) were prepared with DMSO and illuminated with UV light (365 nm) for 5 min. Then, cells were exposed to compounds at a final concentration of 50 µM and incubated for 24 h. Cells were detached with Trypsin/EDTA and washed with phosphate buffered saline (PBS) by centrifugation at 500 g for 5 min and resuspended in PBS. Cell pellets were lysed with a lysis buffer containing Tris […]\nand freshly added 1% protease inhibitor cocktail (Sigma Aldrich, Germany) on ice, followed by sonification for 30 minutes. The protein concentration was determined by the Bradford method against bovine serum albumin (BSA) as standard. Each slot of the precast gel was loaded with 30 µg protein followed by an electrophoretic separation and a transfer onto PVDF membranes.\nBlots were blocked with 10% non-fat milk powder in Tris-buffered saline containing 20 mM Tris, 145 mM NaCl and Tween 0.5% (TBST) for 2 h and incubated with primary antibody in 1:1000 dilutions (in TBST and 1% BSA) over night at 4 °C. After washing procedure, blots were incubated with secondary antibody conjugated with horse radish peroxidase (1:5000 in TBST and 1% BSA) for 2 h. All used antibodies were obtained from cell signalling (UK): anti ac.H3K9 […]\nanti ac.α-tubulin (#5335), anti α-tubulin (#2125) and anti rabbit-HRP (#7074). Target protein bands were detected with Clarity Western ECL Substrate (Biorad, Germany) and recorded at an Advanced Fluorescence Imager (INTAS, Germany). Band intensity was related to internal standard of the TGX Stain-Free gels as loading control.\nIn order to verify the conformations of Z-15c and Z-15f obtained from our molecular docking experiments, a two-dimensional dihedral analysis was performed using MOE with 3-(2-phenyldiazenyl)-pyridine as reference compound. Both dihedrals were rotated by 360° in 5° steps. At each step, the potential energy was calculated with AMBER force field parameters and AM1-BCC partial charges applied. The diazenyl double bond of both compounds is nearly […]"}, "[3]": {"assay": "UV/Vis spectra and half-life of thermal Z→E isomerization", "assay_type": "physicochemical", "set-up": "k of thermal Z→E isomerization (non-linear regression): unit not given here", "conditions": "for λΔ/max absorption maximum at thermal equilibrium: 50 μM in DMSO/assay buffer; for k of thermal Z→E isomerization (non-linear regression): 50 μM", "experimental": "as §1\nUV/Vis Spectra and Half-Life of Thermal Isomerization\nThe half-life of the thermal Z→E isomerization after 5 minutes of 365 nm irradiation was determined by UV/Vis-spectroscopy. Therefore, solutions of the respective compounds (50 µM) in 5%, 50% or 90% DMSO in enzyme assay buffer (v/v) were prepared. An initial spectrum of the thermal equilibrium was recorded. After 5 minutes of irradiation with 365 nm the increase of absorbance at the thermal equilibrium maximum (λ∆max) was recorded as exemplified by compound 15c (Figure S3). Absorbance at λ = λ ∆max was plotted as a function of time. Non-linear regression yielded the half-life of the thermal Z→E isomerization (Table S1). For extrapolation of the reaction kinetics, the plateau value was set to the initial absorbance at λ=λ∆max. The following equation was used for non-linear regression:\ny = (y0 − Plateau)e−kx + Plateau\nFigure S3: Left: UV-Vis spectrum of 15c (50 µM) in assay buffer (5% DMSO, v/v) at the thermal equilibrium (∆) and the photostationary state (PSS) after UV irradiation (365 nm). Right:\nAbsorbance of 15c (50 µm) in assay buffer (5% DMSO, v/v) at λ∆max = 328 nm after 5 minutes of UV (365 nm) irradiation.\n(1 picture or pasted object on this page, not shown here)"}, "[4]": {"conditions": "90 % DMSO (v/v) in assay buffer"}, "[5]": {"conditions": "50 % DMSO (v/v) in assay buffer"}}}
{"compound": "CC(C)(C)OC(=O)NCc1ccc(/N=N/c2cncc(C(N)=O)c2)cc1", "note": "[15 c]", "values": [{"measurement": "E/Z [%] PSD @ 365 nm", "setting": "[1]", "value": "11/89"}, {"measurement": "E/Z [%] PSD @ 452 nm", "setting": "[1]", "value": "86/14"}, {"measurement": "melting point", "value": "212.1 °C (dec.)"}, {"measurement": "H4K8 acetylation", "setting": "[2]", "value": "hyperacetylation"}, {"measurement": "acetylation level of α-tubulin", "setting": "[2]", "value": "none of the compounds influenced"}, {"measurement": "expression of total histone H3", "setting": "[2]", "value": "no effect"}, {"measurement": "expression of total α-tubulin protein", "setting": "[2]", "value": "no effect"}, {"measurement": "level of acetylated lysine H3K18", "setting": "[2]", "value": "increased"}, {"measurement": "level of acetylated lysine H3K56", "setting": "[2]", "value": "increased"}, {"measurement": "total H4", "setting": "[2]", "value": "slight increase"}, {"measurement": "λΔ/max absorption maximum at thermal equilibrium", "setting": "[3]; 5 % DMSO (v/v)", "value": 329, "unit": "nm"}, {"measurement": "k of thermal Z→E isomerization (non-linear regression)", "setting": "[3]; 5 % DMSO (v/v) in assay buffer", "value": 0.002173}]}
{"compound": "Cc1cc(/N=N/c2cncc(C(N)=O)c2)cc(C)c1N", "note": "[7 f]", "values": [{"measurement": "melting point", "value": 255, "unit": "°C"}]}
{"compound": "CCCCCCCCCC(=O)NCc1ccc(/N=N/c2cncc(C(N)=O)c2)cc1", "note": "[15 f]", "values": [{"measurement": "E/Z [%] PSD @ 365 nm", "setting": "[1]", "value": "5/95"}, {"measurement": "E/Z [%] PSD @ 452 nm", "setting": "[1]", "value": "79/21"}, {"measurement": "melting point", "value": 259.5, "unit": "°C"}, {"measurement": "H4K8 acetylation", "setting": "[2]", "value": "hyperacetylation"}, {"measurement": "acetylation level of α-tubulin", "setting": "[2]", "value": "none of the compounds influenced"}, {"measurement": "expression of total histone H3", "setting": "[2]", "value": "no effect"}, {"measurement": "expression of total α-tubulin protein", "setting": "[2]", "value": "no effect"}, {"measurement": "level of acetylated lysine H3K18", "setting": "[2]", "value": "increased"}, {"measurement": "level of acetylated lysine H3K56", "setting": "[2]", "value": "increased"}, {"measurement": "total H4", "setting": "[2]", "value": "slight increase"}, {"measurement": "λΔ/max absorption maximum at thermal equilibrium", "setting": "[3]; 90 % DMSO (v/v)", "value": 333, "unit": "nm"}, {"measurement": "k of thermal Z→E isomerization (non-linear regression)", "setting": "[3]; [4]", "value": 0.006796}]}
{"compound": "CCCCCCCCCCCCCC(=O)Nc1c(C)cc(/N=N/c2cncc(C(N)=O)c2)cc1C", "note": "[9 g]", "values": [{"measurement": "E/Z [%] PSD @ 365 nm", "setting": "[1]", "value": "14/86"}, {"measurement": "E/Z [%] PSD @ 452 nm", "setting": "[1]", "value": "87/13"}, {"measurement": "melting point", "value": 254.1, "unit": "°C"}, {"measurement": "λΔ/max absorption maximum at thermal equilibrium", "setting": "[3]; 90 % DMSO (v/v)", "value": 345, "unit": "nm"}, {"measurement": "k of thermal Z→E isomerization (non-linear regression)", "setting": "[3]; [4]", "value": 0.02709}]}
{"compound": "NC(=O)c1cncc(OCc2cccc(/N=N/c3ccc(F)cc3)c2)c1", "note": "[20 b]", "values": [{"measurement": "E/Z [%] PSD @ 365 nm", "setting": "[1]", "value": "2/98"}, {"measurement": "E/Z [%] PSD @ 452 nm", "setting": "[1]", "value": "83/17"}, {"measurement": "melting point", "value": 202.1, "unit": "°C"}, {"measurement": "λΔ/max absorption maximum at thermal equilibrium", "setting": "[3]; 50 % DMSO (v/v)", "value": 324, "unit": "nm"}]}
{"compound": "Cc1cc(/N=N/c2cncc(C(N)=O)c2)cc(C)c1NC(=O)c1ccc(-c2cccs2)cc1", "note": "[9 j]", "values": [{"measurement": "E/Z [%] PSD @ 365 nm", "setting": "[1]", "value": "29/71"}, {"measurement": "E/Z [%] PSD @ 452 nm", "setting": "[1]", "value": "93/7"}, {"measurement": "melting point", "value": "306.5 °C (dec.)"}, {"measurement": "λΔ/max absorption maximum at thermal equilibrium", "setting": "[3]; 50 % DMSO (v/v)", "value": 330, "unit": "nm"}, {"measurement": "k of thermal Z→E isomerization (non-linear regression)", "setting": "[3]; [5]", "value": 1.212}]}
{"compound": "CC(C)(O)C#Cc1ccc(/N=N/c2cncc(C(N)=O)c2)cc1", "note": "[15 h]", "values": [{"measurement": "E/Z [%] PSD @ 365 nm", "setting": "[1]", "value": "23/77"}, {"measurement": "E/Z [%] PSD @ 452 nm", "setting": "[1]", "value": "92/8"}, {"measurement": "melting point", "value": 223.3, "unit": "°C"}, {"measurement": "λΔ/max absorption maximum at thermal equilibrium", "setting": "[3]; 50 % DMSO (v/v)", "value": 350, "unit": "nm"}, {"measurement": "k of thermal Z→E isomerization (non-linear regression)", "setting": "[3]; [5]", "value": 0.00906}]}
{"compound": "NC(=O)c1cncc(OCc2cccc(/N=N/c3ccc(OCc4ccccc4)cc3)c2)c1", "note": "[20 a]", "values": [{"measurement": "E/Z [%] PSD @ 365 nm", "setting": "[1]", "value": "4/96"}, {"measurement": "E/Z [%] PSD @ 452 nm", "setting": "[1]", "value": "80/20"}, {"measurement": "acetylation level of α-tubulin", "setting": "[2]", "value": "none of the compounds influenced"}, {"measurement": "activity regarding the examined substrates (acetylation)", "setting": "[2]", "value": "did not exert any activity"}, {"measurement": "expression of total histone H3", "setting": "[2]", "value": "no effect"}, {"measurement": "expression of total α-tubulin protein", "setting": "[2]", "value": "no effect"}, {"measurement": "total H4", "setting": "[2]", "value": "slight increase"}, {"measurement": "λΔ/max absorption maximum at thermal equilibrium", "setting": "[3]; 50 % DMSO (v/v)", "value": 352, "unit": "nm"}, {"measurement": "k of thermal Z→E isomerization (non-linear regression)", "setting": "[3]; [5]", "value": 0.0207}]}
{"compound": "NC(=O)c1cncc(/N=N/c2c(O)ccc3ccccc23)c1", "note": "[7 c]", "values": [{"measurement": "melting point", "value": 260, "unit": "°C"}]}
{"compound": "Cc1cc(/N=N/c2cncc(C(N)=O)c2)cc(C)c1NC(=O)c1ccccc1", "note": "[9 h]", "values": [{"measurement": "E/Z [%] PSD @ 365 nm", "setting": "[1]", "value": "14/86"}, {"measurement": "E/Z [%] PSD @ 452 nm", "setting": "[1]", "value": "91/9"}, {"measurement": "melting point", "value": "267 °C (dec.)"}, {"measurement": "λΔ/max absorption maximum at thermal equilibrium", "setting": "[3]; 50 % DMSO (v/v)", "value": 337, "unit": "nm"}, {"measurement": "k of thermal Z→E isomerization (non-linear regression)", "setting": "[3]; [5]", "value": 0.9524}]}
